# Results as given in patent publication US5075289A, “9-R-azacyclic erythromycin antibiotics” (priority 1988, dated 1991).
# Like-named read-outs stand apart in the source and are kept apart here.
# Key:
# [1] = tested on: Streptococcus bovis A5169; test: In vitro antibacterial activity, agar dilution MIC; type: cell-based; settings: read-out: MIC
# Description: (§1) The antimicrobial spectra of a number of compounds of the invention were tested by the following method:
# (§2) Twelve petri dishes containing successive aqueous dilutions of the test compound mixed with 10 ml of sterilized Brain Heart Infusion agar (Difco 0418-01-5) are prepared. Each plate is inoculated with 1:100 (or 1:10 for slow growing strains, primarily Micrococcus and Streptococcus) dilutions of up to 32 different microorganisms, using a Steers replicator block The inoculated plates are incubated at 35°-37° C. for 20-24 hours. In addition, a control plate, using BHI agar containing no test compound, is prepared and incubated at the beginning and end of each test.
# (§3) An additional plate containing a compound having known susceptibility patterns for the organisms being tested and belonging to the same antibiotic class as the test compound is also prepared and incubated as a further control, as well as to provide test-to-test comparability. Erythromycin A was used for this purpose.
# (§4) After incubation, each disk is read. The MIC is defined as the lowest concentration of drug yielding no growth, a slight haze, or sparsely isolated colonies on the inoculum spot as compared to the growth control.
# Escherichia coli SS = test: In vitro antibacterial activity, agar dilution MIC; type: cell-based; settings: read-out: MIC
# Description: as §1, §2, §3, §4
# [2] = tested on: Micrococcus luteus ATCC 4698; test: In vitro antibacterial activity, agar dilution MIC; type: cell-based
# Description: as §1, §2, §3, §4
# [3] = tested on: Streptococcus agalactiae CMX 508; test: In vitro antibacterial activity, agar dilution MIC; type: cell-based
# Description: as §1, §2, §3, §4
# [4] = tested on: Micrococcus luteus ATCC 9341; test: In vitro antibacterial activity, agar dilution MIC; type: cell-based
# Description: as §1, §2, §3, §4
# [5] = tested on: Staphylococcus aureus CMX 503A; test: In vitro antibacterial activity, agar dilution MIC; type: cell-based; settings: CMX503A
# Description: as §1, §2, §3, §4
# [6] = tested on: Streptococcus pyogenes EES61; test: In vitro antibacterial activity, agar dilution MIC; type: cell-based; settings: S. pyogenes EES61, Brain Heart Infusion agar, 20-24 hours, read-out: MIC
# Description: as §1, §2, §3, §4
# [7] = tested on: Staphylococcus aureus CMX 686B; test: In vitro antibacterial activity, agar dilution MIC; type: cell-based; settings: CMX686B
# Description: as §1, §2, §3, §4
# [8] = tested on: Staphylococcus aureus ATCC 6538P; test: In vitro antibacterial activity, agar dilution MIC; type: cell-based; settings: ATCC6538P, S. aureus ATCC 6538P, Brain Heart Infusion agar, 35-37° C., 20-24 hours, read-out: MIC
# Description: as §1, §2, §3, §4
# [9] = tested on: Staphylococcus epidermidis 3519; test: In vitro antibacterial activity, agar dilution MIC; type: cell-based; settings: S. epidermidis 3519, Brain Heart Infusion agar, 20-24 hours, read-out: MIC
# Description: as §1, §2, §3, §4
# Staphylococcus aureus 45 = test: In vitro antibacterial activity, agar dilution MIC; type: cell-based
# Description: as §1, §2, §3, §4
# [10] = tested on: Streptococcus pyogenes 2548 INDUC; test: In vitro antibacterial activity, agar dilution MIC; type: cell-based; settings: S. pyogenes 2548 INDUC, Brain Heart Infusion agar, 20-24 hours, read-out: MIC
# Description: as §1, §2, §3, §4
# Escherichia coli H560 = test: In vitro antibacterial activity, agar dilution MIC; type: cell-based
# Description: as §1, §2, §3, §4
# [11] = tested on: Staphylococcus aureus CMX 553; test: In vitro antibacterial activity, agar dilution MIC; type: cell-based
# Description: as §1, §2, §3, §4
# [12] = tested on: Staphylococcus aureus A5177; test: In vitro antibacterial activity, agar dilution MIC; type: cell-based; settings: S. aureus A5177, Brain Heart Infusion agar, 20-24 hours, read-out: MIC
# Description: as §1, §2, §3, §4
# Escherichia coli DC-2 = test: In vitro antibacterial activity, agar dilution MIC; type: cell-based; settings: DC2, E. coli DC-2, Brain Heart Infusion agar, 20-24 hours, read-out: MIC
# Description: as §1, §2, §3, §4
# [13] = tested on: Enterococcus faecium ATCC 8043; test: In vitro antibacterial activity, agar dilution MIC; type: cell-based
# Description: as §1, §2, §3, §4
# Escherichia coli Juhl = test: In vitro antibacterial activity, agar dilution MIC; type: cell-based
# Description: as §1, §2, §3, §4
# [14] = tested on: Streptococcus pyogenes 930 CONST; test: In vitro antibacterial activity, agar dilution MIC; type: cell-based
# Description: as §1, §2, §3, §4
# [15] = tested on: Staphylococcus aureus 45 RAR 2; test: microbe, parasite or virus in culture; type: cell-based; settings: 45RAR2
# Description: as §1, §2, §3, §4
# [16] = tested on: Staphylococcus aureus (NCTC 10649); test: In-vivo mouse protection assay (acute mouse protection test); design: species or system Swiss albino mice; settings: S. aureus NCTC 10649, dosed 1 and 5 hours post infection, 7 days, read-out: ED50
# Description: (§5) The acute mouse protection test is conducted on ten mice with each of three levels of drug. Mouse mortality is used to calculate an ED50 value, i.e., the dose of drug required to protect 50% of the test animals against death due to the inoculum challenge.
# (§6) The acute mouse protection test is conducted on female, Swiss albino mice, 18-20 grams in weight. […] To check the potency of the inoculum, a titration of the indicated test organism is carried out in control animals. The treatment group of animals is dosed with the test compound at 1 and 5 hours post infection and observed for 7 days. The ED50 values are calculated using the mortality data collected.
# [17] = tested on: Streptococcus pyogenes C-203; test: as above; design: species or system Swiss albino mice; settings: S. pyogenes C-203, dosed 1 and 5 hours post infection, 7 days, read-out: ED50
# Description: as §5, §6
# [18] = tested on: Streptococcus pneumoniae (6303); test: as above; design: species or system Swiss albino mice; settings: 168 h
# Description: as §5, §6
# [19] = CMX508, S. agalactiae CMX 508, Brain Heart Infusion agar, 20-24 hours, read-out: MIC
# [20] = ATCC9341, M. luteus ATCC 9341, Brain Heart Infusion agar, 20-24 hours, read-out: MIC
# [21] = S. aureus CMX 503A, Brain Heart Infusion agar, 20-24 hours, read-out: MIC
# [22] = S. aureus CMX 686B, Brain Heart Infusion agar, 20-24 hours, read-out: MIC
# [23] = E. coli H560, Brain Heart Infusion agar, 20-24 hours, read-out: MIC
# [24] = CMX553, S. aureus CMX 553, Brain Heart Infusion agar, 20-24 hours, read-out: MIC
# [25] = S. bovis A5169, Brain Heart Infusion agar, 20-24 hours
# [26] = E. coli SS, Brain Heart Infusion agar, 20-24 hours
# [27] = ATCC4698, M. luteus ATCC 4698, Brain Heart Infusion agar, 20-24 hours, read-out: MIC
# [28] = S. aureus 45, Brain Heart Infusion agar, 20-24 hours, read-out: MIC
# [29] = ATCC8043, E. faecium ATCC 8043, Brain Heart Infusion agar, 20-24 hours, read-out: MIC
# [30] = E. coli Juhl, Brain Heart Infusion agar, 20-24 hours, read-out: MIC
smiles,measurement,setting,value
CC[C@H]1OC(=O)[C@H](C)[C@@H](O[C@H]2C[C@@](C)(OC)[C@@H](N)[C@H](C)O2)[C@H](C)[C@@H](O[C@@H]2O[C@H](C)C[C@H](N(C)C)[C@H]2O)[C@](C)(O)C[C@@H](C)[C@@H](N2CCCCC2)[C@H](C)[C@@H](O)[C@]1(C)O [Example 31],MIC,[1],0.02 µg/mL
same,MIC,Escherichia coli SS,0.2 µg/mL
same,MIC,[2]; ATCC4698,0.39 µg/mL
same,MIC,[3]; [19],0.05 µg/mL
same,MIC,[4]; [20],0.05 µg/mL
same,MIC,[5]; [21],0.78 µg/mL
same,MIC,[6],0.05 µg/mL
same,MIC,[7]; [22],0.39 µg/mL
same,MIC,[8],0.78 µg/mL
same,MIC,[9],0.78 µg/mL
same,MIC,Staphylococcus aureus 45; 45,0.39 µg/mL
same,MIC,[10],6.2 µg/mL
same,MIC,Escherichia coli H560; [23],1.56 µg/mL
same,MIC,[11]; [24],0.39 µg/mL
same,MIC,[12],6.2 µg/mL
same,MIC,Escherichia coli DC-2,3.1 µg/mL
same,MIC,"[13]; ATCC8043, read-out: MIC",0.2 µg/mL
same,MIC,Escherichia coli Juhl,6.2 µg/mL
same,MIC,[14]; 930CONST,> 100 µg/mL
same,MIC,[15],0.78 µg/mL
same,ED50,"[16]; NCTC10649, 168 h, Oral",125 mg/kg
same,ED50,"[16]; NCTC10649, sc, 168 h, Subcutaneous",25.7 mg/kg
same,ED50,"[17]; C203, 168 h, Oral",27.9 mg/kg
same,ED50,"[17]; C203, sc, 168 h, Subcutaneous",0.8 mg/kg
same,ED50,[18]; po,13.8 mg/kg
same,ED50,"[18]; sc, Subcutaneous, S. pneumoniae 6303, dosed 1 and 5 hours post infection, 7 days, read-out: ED50",1 mg/kg
CC[C@H]1OC(=O)[C@H](C)[C@@H](O[C@H]2C[C@@](C)(OC)[C@@H](O)[C@H](C)O2)[C@H](C)[C@@H](O[C@@H]2O[C@H](C)C[C@H](N(C)C)[C@H]2O)[C@](C)(O)C[C@@H](C)[C@@H](N2CCNCC2)[C@H](C)[C@@H](O)[C@]1(C)O [Example 15],MIC,[1]; [25],1.56 µg/mL
same,MIC,Escherichia coli SS; [26],1.56 µg/mL
same,MIC,[2]; [27],12.5 µg/mL
same,MIC,[3]; [19],1.56 µg/mL
same,MIC,[4]; [20],3.1 µg/mL
same,MIC,[5],6.2 µg/mL
same,MIC,[6],1.56 µg/mL
same,MIC,[7],6.2 µg/mL
same,MIC,[8],3.1 µg/mL
same,MIC,[9],6.2 µg/mL
same,MIC,Staphylococcus aureus 45; [28],12.5 µg/mL
same,MIC,[10],100 µg/mL
same,MIC,Escherichia coli H560; [23],100 µg/mL
same,MIC,[11]; CMX553,6.2 µg/mL
same,MIC,[12],> 100 µg/mL
same,MIC,Escherichia coli DC-2,> 100 µg/mL
same,MIC,[13]; [29],12.5 µg/mL
same,MIC,Escherichia coli Juhl; [30],> 100 µg/mL
same,MIC,[14]; 930CONST,> 100 µg/mL
same,MIC,[15],12.5 µg/mL
CC[C@H]1OC(=O)[C@H](C)[C@@H](O[C@H]2C[C@@](C)(OC)[C@@H](O)[C@H](C)O2)[C@H](C)[C@@H](O[C@@H]2O[C@H](C)C[C@H](N(C)C)[C@H]2O)[C@](C)(O)C[C@@H](C)[C@@H](N2CCN(C(=O)OCc3ccccc3)CC2)[C@H](C)[C@@H](O)[C@]1(C)O [Example 18],MIC,[1]; [25],0.05 µg/mL
same,MIC,Escherichia coli SS; [26],3.1 µg/mL
same,MIC,[2]; [27],0.78 µg/mL
same,MIC,"[3]; CMX508, read-out: MIC",0.2 µg/mL
same,MIC,[4]; ATCC9341,0.1 µg/mL
same,MIC,[5]; [21],0.78 µg/mL
same,MIC,[6],0.1 µg/mL
same,MIC,[7]; [22],0.78 µg/mL
same,MIC,[8],0.78 µg/mL
same,MIC,[9],0.78 µg/mL
same,MIC,Staphylococcus aureus 45; [28],0.78 µg/mL
same,MIC,[10],12.5 µg/mL
same,MIC,Escherichia coli H560; H560,50 µg/mL
same,MIC,[11]; [24],0.78 µg/mL
same,MIC,[12],12.5 µg/mL
same,MIC,Escherichia coli DC-2,> 100 µg/mL
same,MIC,[13]; [29],0.39 µg/mL
same,MIC,Escherichia coli Juhl; [30],> 100 µg/mL
same,MIC,"[14]; S. pyogenes 930 CONST, Brain Heart Infusion agar, 20-24 hours, read-out: MIC",50 µg/mL
same,MIC,[15],1.56 µg/mL
